In this assay the test system is BDF1 mice, B16 melanoma ip, median survival T/C. Briefly: NCI In Vivo Anticancer Drug Screen. Data for tumor model B16 Melanoma (intraperitoneal) in B6D2F1 (BDF1) mice. Conditions: endpoint: median survival time, higher = longer survival. Put shortly:
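Tumor-bearing mice received test compound or vehicle. Survival or tumor size was then measured in both groups. The treated-group figure was divided by the control-group figure.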

[1] abbreviates: dose: 50.0 mg/kg/injection, schedule: Q01DX009 (ip), vehicle: Klucel (hydroxypropylcellulose) (HPC).
[2] abbreviates: dose: 100.0 mg/kg/injection, schedule: Q01DX009 (ip), vehicle: Klucel (hydroxypropylcellulose) (HPC).
[3] abbreviates: dose: 200.0 mg/kg/injection, schedule: Q01DX009 (ip), vehicle: Klucel (hydroxypropylcellulose) (HPC).
[4] abbreviates: dose: 25.0 mg/kg/injection, schedule: Q01DX009 (ip), vehicle: Klucel (hydroxypropylcellulose) (HPC).
The mark [5] stands for this setting: dose: 50.0 mg/kg/injection, schedule: Q01DX009 (ip), vehicle: saline.
Where [6] appears, read: dose: 100.0 mg/kg/injection, schedule: Q01DX009 (ip), vehicle: saline.
The mark [7] stands for this setting: dose: 12.5 mg/kg/injection, schedule: Q01DX009 (ip), vehicle: Klucel (hydroxypropylcellulose) (HPC).
The mark [8] stands for this setting: dose: 400.0 mg/kg/injection, schedule: Q01DX009 (ip), vehicle: Klucel (hydroxypropylcellulose) (HPC).

Molecules are shown by their SMILES. Where “and” joins values, the source holds several entries; their conditions need not be identical. Identical values can stand only once. Inconclusive results and toxic doses are left out.

In PubChem BioAssay AID192 (DTP/NCI, 2004) one finds T/C data, which are given here for 22 compounds.

With `[Cl][Pt+2][Cl].[NH-]CC1(C[NH-])CCCCC1`, the T/C (dose: 1.5 mg/kg/injection, schedule: Q01DX009 (ip), vehicle: saline) was 190 % of control; the T/C (dose: 3.0 mg/kg/injection, schedule: Q01DX009 (ip), vehicle: saline) was 208 % of control; the T/C (dose: 6.0 mg/kg/injection, schedule: Q01DX009 (ip), vehicle: saline) was 208 % of control.
On to `N/C(=N\O)c1cn(C2OC(CO)C(O)C2O)c2ncnc(N)c12` (stereo not given), for which the T/C is 115 % of control (dose: 1.0 mg/kg/injection, schedule: Q01DX009 (ip), vehicle: saline); 117 % of control (dose: 2.0 mg/kg/injection, schedule: Q01DX009 (ip), vehicle: saline); 121 % of control (dose: 4.0 mg/kg/injection, schedule: Q01DX009 (ip), vehicle: saline).
On to `O=C(CC(=Nc1ccccc1)c1ccccc1)c1ccccc1.O=C(CC(=Nc1ccccc1)c1ccccc1)c1ccccc1.[Cu]`, for which the T/C is, setting by setting: (dose: 6.25 mg/kg/injection, schedule: Q04DX003 (ip), vehicle: saline with Tween-80) 93 % of control; (dose: 12.5 mg/kg/injection, schedule: Q04DX003 (ip), vehicle: saline with Tween-80) 86 % of control; (dose: 25.0 mg/kg/injection, schedule: Q04DX003 (ip), vehicle: saline with Tween-80) 91 % of control.
Regarding `Cc1cc2c(cc1C)NC(C)CC(=O)N2` (stereo not given), the T/C runs as follows: under setting [1], 106 % of control; under setting [2], 108 % of control; under setting [3], 106 % of control.
Consider `COc1ccc(S(=O)(=O)NC(=S)S)cc1`, for which the T/C (dose: 12.5 mg/kg/injection, schedule: Q01DX009 (ip), vehicle: water) was 103 % of control; the T/C (dose: 25.0 mg/kg/injection, schedule: Q01DX009 (ip), vehicle: water) was 102 % of control; the T/C (dose: 50.0 mg/kg/injection, schedule: Q01DX009 (ip), vehicle: water) was 100 % of control; the T/C (dose: 100.0 mg/kg/injection, schedule: Q01DX009 (ip), vehicle: water) is 103 % of control.
As to `CCOc1c(Br)cc(Br)cc1/C=N/NS(=O)(=O)c1ccc(C)cc1`, the T/C runs as follows: (dose: 12.5 mg/kg/injection, schedule: Q04DX003 (ip), vehicle: Klucel (hydroxypropylcellulose) (HPC)) 102 % of control; under setting [4], 91 % of control; (dose: 25.0 mg/kg/injection, schedule: Q04DX003 (ip), vehicle: Klucel (hydroxypropylcellulose) (HPC)) 107 % of control; under setting [1], 97 % of control; (dose: 50.0 mg/kg/injection, schedule: Q04DX003 (ip), vehicle: Klucel (hydroxypropylcellulose) (HPC)) 104 % of control; (dose: 170.0 mg/kg/injection, schedule: Q04DX003 (ip), vehicle: Klucel (hydroxypropylcellulose) (HPC)) 97 % of control.
In the case of `CCN(CC)CCCNc1nccc2c(C)c3[nH]c4ccncc4c3cc12`, the T/C runs as follows: (dose: 0.37 mg/kg/injection, schedule: Q01DX009 (ip), vehicle: other) 115 % of control; (dose: 0.38 mg/kg/injection, schedule: Q01DX009 (ip), vehicle: other) 160 % of control; (dose: 0.75 mg/kg/injection, schedule: Q01DX009 (ip), vehicle: other) 171 % of control and 177 % of control; (dose: 1.5 mg/kg/injection, schedule: Q01DX009 (ip), vehicle: other) 163 % of control and 218 % of control; (dose: 3.0 mg/kg/injection, schedule: Q01DX009 (ip), vehicle: other) 163 % of control and 233 % of control; (dose: 6.0 mg/kg/injection, schedule: Q01DX009 (ip), vehicle: other) 188 % of control and 213 % of control.
Regarding `Nc1c([N+](=O)[O-])ccc2ccccc12`, the T/C by setting is: (dose: 100.0 mg/kg/injection, schedule: Q04DX003 (ip), vehicle: saline with Tween-80) 108 % of control; (dose: 200.0 mg/kg/injection, schedule: Q04DX003 (ip), vehicle: saline with Tween-80) 91 % of control; (dose: 400.0 mg/kg/injection, schedule: Q04DX003 (ip), vehicle: saline with Tween-80) 100 % of control.
As for `CCCNCCN`, the T/C reads like this: (dose: 25.0 mg/kg/injection, schedule: Q01DX009 (ip), vehicle: saline) 109 % of control; under setting [5], 116 % of control; under setting [6], 96 % of control.
Regarding `CC(C)(C)C1CCCCC1`, the T/C under setting [7] was 96 % of control, the T/C under setting [4] is 105 % of control, the T/C under setting [1] was 95 % of control and the T/C under setting [2] is 88 % of control.
For `Cc1ccc([N+](=O)[O-])c(O)c1[N+](=O)[O-]`, the T/C by setting is: under setting [1], 100 % of control; under setting [3], 90 % of control.
As to `O=[N+]([O-])c1cccc2c(S(=O)(=O)O)cccc12`, the T/C under setting [5] is 113 % of control; the T/C under setting [6] is 110 % of control; the T/C (dose: 200.0 mg/kg/injection, schedule: Q01DX009 (ip), vehicle: saline) was 91 % of control.
As for `CC(=O)c1cccc(NC2C(N)C(NC(=O)N(C)C)(C(C)O)C(C)(O)C2(O)COC(=O)c2c(C)cccc2O)c1` (stereo not given), the T/C reads like this: (dose: 0.3 mg/kg/injection, schedule: Q01DX009 (ip), vehicle: saline with Tween-80) 115 % of control; (dose: 0.3 mg/kg/injection, schedule: Q01DX009 (ip), vehicle: saline) 113 % of control; (dose: 0.5 mg/kg/injection, schedule: Q01DX009 (ip), vehicle: Klucel (hydroxypropylcellulose) (HPC)) 116 % of control; (dose: 0.6 mg/kg/injection, schedule: Q01DX009 (ip), vehicle: saline) 113 % of control; (dose: 1.0 mg/kg/injection, schedule: Q01DX009 (ip), vehicle: Klucel (hydroxypropylcellulose) (HPC)) 113 % of control; (dose: 1.2 mg/kg/injection, schedule: Q01DX009 (ip), vehicle: saline) 122 % of control.
As to `O=C1CNC(c2ccccc2)c2cc(Cl)ccc2N1` (stereo not given), the T/C under setting [7] was 107 % of control; the T/C under setting [4] is 97 % of control; the T/C under setting [1] was 107 % of control; the T/C under setting [2] is 94 % of control; the T/C under setting [3] is 102 % of control.
Consider `CC(=O)N(C(C)=O)C1=C(c2ccccc2)C(=O)c2ccccc21`, for which the T/C is, setting by setting: under setting [2], 100 % of control; under setting [3], 97 % of control; under setting [8], 97 % of control.
Turning to `CCCCC(CC)CCC(O)CCC(CC)CC` (stereo not given), the T/C reads like this: under setting [2], 90 % of control; under setting [8], 87 % of control.
In the case of `CC(=O)NNC(=O)c1ccccc1`, the T/C (dose: 12.5 mg/kg/injection, schedule: Q#A X018 (ip), vehicle: water) was 93 % of control; the T/C (dose: 25.0 mg/kg/injection, schedule: Q#A X018 (ip), vehicle: water) is 93 % of control; the T/C (dose: 50.0 mg/kg/injection, schedule: Q#A X018 (ip), vehicle: water) is 106 % of control.
With `O=C1OC(c2ccc([N+](=O)[O-])cc2)=N/C1=C\c1ccc(Cl)cc1`, the T/C is 102 % of control under setting [4] and 86 % of control under setting [1].
In the case of `CCOC(=O)CC(=O)c1ccccc1F`, the T/C was 99 % of control under setting [2], 102 % of control under setting [3] and 106 % of control under setting [8].
For `CCCCCCCCC(=O)N1CC(C)OC(C)C1` (stereo not given) the same measures were 103 % of control, 89 % of control and 94 % of control.
For `O=C1c2ccccc2C(=O)c2c(NCCNCCO)ccc(O)c21`, the T/C (dose: 2.5 mg/kg/injection, schedule: Q01DX009 (ip), vehicle: suspension in saline) was 110 % of control; the T/C (dose: 5.0 mg/kg/injection, schedule: Q01DX009 (ip), vehicle: suspension in saline) was 119 % of control; the T/C (dose: 10.0 mg/kg/injection, schedule: Q01DX009 (ip), vehicle: suspension in saline) is 119 % of control; the T/C (dose: 20.0 mg/kg/injection, schedule: Q01DX009 (ip), vehicle: suspension in saline) is 171 % of control; the T/C (dose: 80.0 mg/kg/injection, schedule: Q01DX009 (ip), vehicle: suspension in saline) was 181 % of control.
In the case of `C=C1CCN(c2ccc(C)cc2)C1=O`, the T/C was 91 % of control (dose: 4.0 mg/kg/injection, schedule: Q01DX009 (ip), vehicle: saline + alcohol); 88 % of control (dose: 8.0 mg/kg/injection, schedule: Q01DX009 (ip), vehicle: saline + alcohol); 94 % of control (dose: 16.0 mg/kg/injection, schedule: Q01DX009 (ip), vehicle: saline + alcohol); 89 % of control (dose: 32.0 mg/kg/injection, schedule: Q01DX009 (ip), vehicle: saline + alcohol); 104 % of control (dose: 64.0 mg/kg/injection, schedule: Q01DX009 (ip), vehicle: saline + alcohol).
